Data set [1] has as its system mesenchymal stem cells (MSCs). Nature of the data set: fluorescent immunocytochemistry for cardiogenic differentiation markers Mef2a and MHC beta in treated MSCs. Type of data set: cell-based, rat. The settings on record: 10 μg/ml; for treated cells with Mef2a-positive staining (D3): treated for 3 days; for treated cells with MHC beta-positive signals (D7): treated for 7 days. As to the method: FIG. 16 depicts immunofluorescence staining for expression of cardiogenic differentiation markers, Mef2a (fluorescence in D3) and beta, MHC beta (fluorescence in D7). D3 and D7, the cultured MSCs samples were treated with the compounds, as labeled, for 3 and 7 days, respectively. Neg is the negative control of MSCs culture, with no use of the first antibody specific to Mef2a or MHC beta, showing negative signals of Mef2a (D3) and MHC (D7) staining Ctrl represents the cultured MSCs treated with the equivalent volume of 10% DMSO, with almost no positive Mef2a (D3) and MHC beta (D7) signals observed.
FIG. 17 depicts immunofluorescence staining for expressions of early cardiogenic differentiation marker, Mef2a (fluorescence in D3) and cardiac specific myosin heavy chain beta, MHC (fluorescence in D7). D3 and D7, the cultured MSCs samples were treated with the compounds, as labeled, for 3 and 7 days, respectively.
The method for the fluorescent-immunostaining is summarize briefly: The cultured cells were fixed with 4% paraformaldehyde in PBS for 15 minutes and permeabilized with 0.5% Triton X-100 for 15 minutes. Dilution of antibodies was as follows: rabbit polyclonal antibodies specific to rat MEF2a (1:500) and mouse monoclonal antibodies specific to MHC (1:500) (both antibodies from Abcam®). Secondary antibodies were goat anti-mouse and rabbit anti-IgG antibodies conjugated with fluorophore (FITC 495/528 and Cy5 650/667, products of Abcam®), respectively. The nuclei were stained with DAPI. Examined by fluorescent microscopy were the cardiogenic differentiation-associated morphological transition and specific marker protein expression of the cultured MSCs.

Data set [2] deals with mesenchymal stem cells (MSCs). Nature of the data set: cardiogenic morphological transition of cultured MSCs (phase contrast microscope). The settings on record: for MSCs undergoing narrowing and becoming more refractive (cardiogenic morphological transition), D3 / MSCs undergoing narrowing and becoming more refractive (cardiogenic morphological transition), D7: 10 μg/ml; for MSCs undergoing narrowing and becoming more refractive (cardiogenic morphological transition), D3: treated for 3 days; for MSCs undergoing narrowing and becoming more refractive (cardiogenic morphological transition), D7: treated for 7 days; for activity in inducing cardiogenic differentiation of MSCs (in words): summary statements. Type of data set: cell-based, rat. The protocol: FIG. 14 presents photomicrographs that illustrate the activity of Car, HUYA-1 and HUYA-2, each 10 μg/ml, in inducing the cardiogenic morphological transition of mesenchymal stem cells (MSCs). D0, cultures of MSCs were set up before any treatment. The morphology of the MSCs was characterized by flat, irregular, low refracted and well-spread shapes (circles). D3, sample of the cultured MSCs were treated for 3 days with compounds as respectively labeled. […] D7, the cultured MSCs samples were treated for 7 days with compounds as respectively labeled. More MSCs (˜48%) in Car- and HUYA-1-treated cultures underwent narrowing and became more refractive (circles).
FIG. 15 provides a comparison, via photomicrographs, of HUYA-3 (10 μg/ml) with HUYA-4 (10 μg/ml) in inducing cardiogenic morphological transition of MSCs. Ctrl denotes the MSCs treated with vehicle (10% DMSO in equivalent volume). D0, the MSCs cultures were set before any treatment. The morphology of the MSCs was characterized by flat, irregular, low refracted and well-spread shapes (circles). D3, sample of the cultured MSCs were treated for 3 days with compounds as respectively labeled. […] D7, the cultured MSCs samples were treated for 7 days with compounds as respectively labeled. A similar amount of the MSCs (˜22%) in HUYA-4-treated cultures became narrowing and more refractive (ovals).
Testing was performed according to the procedures described in the following: The tibias/femur bones of rats were removed and the BM was flushed out of the bones with alpha IMDM culture medium. The BM was mixed well and centrifuged at 1,500 rpm for 5 minutes. The cell pellet was suspended with 3 ml culture medium, and the forming cell suspension was carefully put on 4 ml Ficoll solution, to minimize disturbance, and then was centrifuged at […] for 30 minutes. The second layer was transferred into a tube and washed twice with PBS to remove Ficoll (1,200 rpm for 5 minutes). The resulting cell pellet was resuspended in IMDM culture medium containing 10% heat-inactivated FBS (GIBCO) and 1% penicillin/streptomycin antibiotic mixture, and this was used for the tests. Non-adherent cells were discarded after 24 hours culturing. The adherent cells were cultured by changing medium every 3 days. The cells became nearly confluent after 14 days culture. To activate the cardiogenic morphology transition, the MSCs were cultured for 7 days in the presence of the HUYA-1, HUYA-2, HUYA-3, HUYA-4 or Car (10 μg/ml IMDM culture medium), respectively. The treating period-dependent morphological transition was evaluated, on a time-lapse basis, with a phase contrast microscope.

The next data set deals with GFP-MSCs. Nature of the data set: differentiation of GFP-MSCs into beating cardiac myocytes in co-culture with rat cardiac myocytes. Type of data set: cell-based, mice. The following applies: 10 μg/ml. The source says:
FIG. 18 depicts HUYA-1-induced differentiation of GFP-MSCs into beating cardiac myocytes in co-culture system. This screenshot was taken from a video showing beating GFP-positive myocytes (enclosed areas) differentiated from the GFP-MSCs, which were co-cultured with rat cardiac myocytes and fibroblasts and then treated with HUYA-1. Since the culture contained non-GFP myocytes and fibroblasts and GFP-MSCs, any beating cells with GFP-positive signals that were identified must have differentiated from GFP-MSCs.
Bone marrow GFP-MSCs were isolated from the tibias/femur bones of GFP-transgenic mice. The GFP-MSCs were co-cultured with the cardiac myocytes isolated from neonatal SD rats in the presence of HUYA-1 (10 μg/ml IMDM culture medium) to mimic the cardiac micro-environment. The cultures were investigated daily, under a fluorescent microscope, to identify beating GFP-positive cells and to gauge the morphological transition of the cultured GFP-MSCs.

A short description of data set [3]: solubility in cell culture medium. Format: physicochemical. The settings on record: compared with HUYA-1. The source says: The DMSO concentration was increased from 5% to 10% to increase the solubility of HUYA-4.
The nature of data set [4]: stress tests of the separated cardiogenin isomers. The settings on record: storage in MTBE/IPA=50:50 or as solids at 40° C. for 24 hours.
Method: Stress tests were performed to determine whether the two cardiogenin isomers separated from each other are stable and not converting into each other. In particular, the two cardiogenin isomers were stressed by storage in MTBE/IPA=50:50 or as solids at 40° C. (the major isomer in solution and solid; the minor isomer only in solution) for 24 hours.
Where [5] appears, read: listed as cardiogenin major isomer.

“Also recorded” adds a separate entry of the source.

As to `C[C@@H]1CC[C@]2(C(=O)OC3OC(CO)C(O)C(O)C3O)CC[C@]3(C)C(=CCC4[C@@]5(C)C[C@@H](O)[C@H](O)[C@@](C)(CO)C5CC[C@]43C)C2[C@]1(C)O` (stereo partly shown) [HUYA-1, cardiogenin], in data set [1], the “treated cells with Mef2a-positive staining (D3)” value (“treated cells … (D3)” for short) is reported as “approximately 15%”. Moreover, the “treated cells with MHC beta-positive signals (D7)” value (shortened to “treated cells … (D7)”) in data set [1] is 20%. For the same molecule, in data set [2], the “MSCs undergoing narrowing and becoming more refractive (cardiogenic morphological transition), D3” value is recorded as ~31%. For the same molecule, the “MSCs undergoing narrowing and becoming more refractive (cardiogenic morphological transition), D7” value in data set [2] is listed as ~48%. In addition, the “cultured MSCs induced into cardiogenic differentiation” value in data set [2] (cell culture, summary of FIGS. 14 and 15) is recorded as “more than 20%”. Besides, the “activity in inducing cardiogenic differentiation of MSCs (in words)” value in data set [2] is “most active compound”; in data set [2] (setting [5]), “substantially enhanced differentiation into cardiomyocytes; also recorded: active”; in data set [2] (listed as isolated cardiogenin major isomer) it was “biologically active”. The “differentiation of MSCs into beating cardiac myocytes” value was “induced cardiogenic differentiation of the GFP-MSCs to form beating cardiac myocytes; also recorded: can enhance the cardiogenic differentiation of MSCs into beating cardiac myocytes” in the data set with GFP-MSCs and “beating cardiomyocytes differentiate from MSCs” with GFP-MSCs (setting [5]).

Regarding `C[C@@H]1CC[C@]2(C(=O)O)CC[C@]3(C)C(=CCC4[C@@]5(C)C[C@@H](O)[C@H](O)[C@@](C)(CO)C5CC[C@]43C)C2[C@]1(C)O` (stereo partly shown) [HUYA-4], in data set [1], the “treated cells … (D3)” value is recorded as ~6% and the “treated cells … (D7)” value is on record as ~8%. Also, in data set [2], the “MSCs undergoing narrowing and becoming more refractive (cardiogenic morphological transition), D3” value is ~20%; the “MSCs undergoing narrowing and becoming more refractive (cardiogenic morphological transition), D7” value was ~22%; the “activity in inducing cardiogenic differentiation of MSCs (in words)” value is given as “induced MSCs into cardiogenic differentiation”. Moreover, the “activity in inducing cardiogenic differentiation of MSCs (in words)” value in data set [2] (listed as aglycone) was “substantially enhanced differentiation into cardiomyocytes”. Besides, the “differentiation of MSCs into beating cardiac myocytes” value in the data set with GFP-MSCs was “beating cardiomyocytes differentiate from MSCs”. For the same molecule, the “solubility in cell culture medium” value in data set [3] was “lower solubility”.

For the molecule cardiogenin [HUYA-2], in data set [1], the “treated cells … (D3)” value is recorded as “almost no positive signals” and the “treated cells … (D7)” value is listed as ~3%. For the same molecule, the stability under stress entry in data set [4] is “The same picture was obtained”. In addition, in data set [2], the “MSCs undergoing narrowing and becoming more refractive (cardiogenic morphological transition), D3” value was “did not show clear morphological changes”; the “MSCs undergoing narrowing and becoming more refractive (cardiogenic morphological transition), D7” value is given as “no significant morphological change”; the “activity in inducing cardiogenic differentiation of MSCs (in words)” value is “essentially inactive”. The “activity in inducing cardiogenic differentiation of MSCs (in words)” value in data set [2] (listed as minor isomer) was “inactive”.

For the origin of these results see patent US20130345159A1, “PURIFIED CARDIOGENIN ISOMER AND RELATED METHODS” (HUYA BIOSCIENCE INTERNATIONAL LLC, priority 2010, published 2013).
